In ChEMBL document CHEMBL4507262, “Data for DCP probe A-1596586” (2021):

Key:
[1] = biological target: Sigma non-opioid intracellular receptor 1 (Homo sapiens, UniProt Q99720); assay: GPCRScan assay: inhibition of Sigma 1; design: radioligand conc. used [nm] 4.0 – 5.0, parental cells HEKT
[2] = biological target: Homeodomain-interacting protein kinase 2 (Homo sapiens) (UniProt Q9H2X6); settings: Compound concentration 1000.0 nM
[3] = biological target: Serine/threonine-protein kinase 3 (Homo sapiens) (UniProt Q13188); settings: Compound concentration 1000.0 nM
[4] = biological target: Mitotic checkpoint serine/threonine-protein kinase BUB1 (Homo sapiens) (UniProt O43683); settings: Compound concentration 1000.0 nM
[5] = biological target: Serine/threonine-protein kinase BRSK2 (Homo sapiens) (UniProt Q8IWQ3); settings: Compound concentration 1000.0 nM
[6] = biological target: Aurora kinase C (Homo sapiens) (UniProt Q9UQB9); settings: Compound concentration 1000.0 nM
[7] = biological target: Ephrin type-A receptor 1 (Homo sapiens) (UniProt P21709); settings: Compound concentration 1000.0 nM
[8] = biological target: Kappa-type opioid receptor (Homo sapiens) (UniProt P41145); assay: kappa (h) (KOP) Eurofins-Cerep binding assay; design: ligand concentration 0.5 nM; settings: filed as agonist, Compound concentration 10.0 uM
[9] = system: Tyrosine-protein kinase ABL1 (Homo sapiens), P00519 [T315I]; settings: Compound concentration 1000.0 nM
[10] = biological target: Serine/threonine-protein kinase pim-3 (Homo sapiens) (UniProt Q86V86); settings: Compound concentration 1000.0 nM
[11] = biological target: Serine/threonine-protein kinase PAK 5 (Homo sapiens) (UniProt Q9P286); settings: Compound concentration 1000.0 nM
[12] = biological target: Calcium/calmodulin-dependent protein kinase type 1B (Homo sapiens) (UniProt Q6P2M8); settings: Compound concentration 1000.0 nM
[13] = system: Phosphatidylinositol 4,5-bisphosphate 3-kinase catalytic subunit alpha isoform (Homo sapiens), P42336 [E545A]; settings: Compound concentration 1000.0 nM
[14] = biological target: Tyrosine-protein kinase receptor Tie-1 (Homo sapiens) (UniProt P35590); settings: Compound concentration 1000.0 nM
[15] = biological target: Cyclin-dependent kinase 9 (Homo sapiens) (UniProt P50750); settings: Compound concentration 1000.0 nM
[16] = system: Fibroblast growth factor receptor 3 (Homo sapiens), P22607 [G697C]; settings: Compound concentration 1000.0 nM
[17] = biological target: MAP kinase-interacting serine/threonine-protein kinase 2 (Homo sapiens) (UniProt Q9HBH9); settings: Compound concentration 1000.0 nM
[18] = biological target: Serine/threonine-protein kinase OSR1 (Homo sapiens) (UniProt O95747); settings: Compound concentration 1000.0 nM
[19] = biological target: Ribosomal protein S6 kinase alpha-2 (Homo sapiens) (UniProt Q15349); settings: Compound concentration 1000.0 nM
[20] = system: Tyrosine-protein kinase ABL1 (Homo sapiens), P00519 [H396P]; settings: Compound concentration 1000.0 nM
[21] = biological target: Myosin-IIIb (Homo sapiens) (UniProt Q8WXR4); settings: Compound concentration 1000.0 nM
[22] = system: Phosphatidylinositol 4,5-bisphosphate 3-kinase catalytic subunit alpha isoform (Homo sapiens), P42336 [Q546K]; settings: Compound concentration 1000.0 nM
[23] = biological target: Serine/threonine-protein kinase MRCK beta (Homo sapiens) (UniProt Q9Y5S2); settings: Compound concentration 1000.0 nM
[24] = biological target: Serine/threonine-protein kinase 17A (Homo sapiens) (UniProt Q9UEE5); settings: Compound concentration 1000.0 nM
[25] = biological target: Phosphatidylinositol 4,5-bisphosphate 3-kinase catalytic subunit gamma isoform (Homo sapiens) (UniProt P48736); settings: Compound concentration 1000.0 nM
[26] = biological target: Cyclin-dependent kinase 11B (Homo sapiens) (UniProt P21127); settings: Compound concentration 1000.0 nM
[27] = biological target: Dual serine/threonine and tyrosine protein kinase (Homo sapiens) (UniProt Q6XUX3); settings: Compound concentration 1000.0 nM
[28] = system: Receptor-type tyrosine-protein kinase FLT3 (Homo sapiens), P36888 [UNDEFINED MUTATION]; settings: Compound concentration 1000.0 nM
[29] = biological target: Serine/threonine-protein kinase PLK1 (Homo sapiens) (UniProt P53350); settings: Compound concentration 1000.0 nM
[30] = biological target: Atypical kinase COQ8B, mitochondrial (Homo sapiens) (UniProt Q96D53); settings: Compound concentration 1000.0 nM
[31] = biological target: T1, Muscarinic acetylcholine receptor M4 (Homo sapiens) (UniProt P08173); settings: Compound concentration 10.0 uM
T1 sequence (whole entry): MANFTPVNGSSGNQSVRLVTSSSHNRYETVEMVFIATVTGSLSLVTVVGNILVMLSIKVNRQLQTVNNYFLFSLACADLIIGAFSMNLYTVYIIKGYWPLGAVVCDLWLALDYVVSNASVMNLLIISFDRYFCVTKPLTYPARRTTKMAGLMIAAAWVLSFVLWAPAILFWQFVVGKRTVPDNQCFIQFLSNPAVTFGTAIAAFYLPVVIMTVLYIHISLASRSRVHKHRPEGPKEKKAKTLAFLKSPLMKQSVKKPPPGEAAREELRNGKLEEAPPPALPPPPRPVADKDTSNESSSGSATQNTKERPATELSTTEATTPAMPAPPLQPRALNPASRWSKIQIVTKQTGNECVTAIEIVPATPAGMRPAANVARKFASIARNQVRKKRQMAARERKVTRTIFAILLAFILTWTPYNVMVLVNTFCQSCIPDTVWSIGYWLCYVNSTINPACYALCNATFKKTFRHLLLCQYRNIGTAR

[32] = biological target: Protein kinase C eta type (Homo sapiens) (UniProt P24723); settings: Compound concentration 1000.0 nM
[33] = biological target: Serine/threonine-protein kinase 38-like (Homo sapiens) (UniProt Q9Y2H1); settings: Compound concentration 1000.0 nM
[34] = biological target: Aurora kinase A (Homo sapiens) (UniProt O14965); settings: Compound concentration 1000.0 nM
[35] = biological target: Rho-associated protein kinase 1 (Homo sapiens) (UniProt Q13464); settings: Compound concentration 1000.0 nM
[36] = biological target: Ribosomal protein S6 kinase alpha-5 (Homo sapiens) (UniProt O75582); settings: Compound concentration 1000.0 nM
[37] = biological target: cAMP-dependent protein kinase catalytic subunit beta (Homo sapiens) (UniProt P22694); settings: Compound concentration 1000.0 nM
[38] = biological target: Tyrosine-protein kinase Fyn (Homo sapiens) (UniProt P06241); settings: Compound concentration 1000.0 nM

Chain of Kappa-type opioid receptor (Homo sapiens) (P41145 whole entry): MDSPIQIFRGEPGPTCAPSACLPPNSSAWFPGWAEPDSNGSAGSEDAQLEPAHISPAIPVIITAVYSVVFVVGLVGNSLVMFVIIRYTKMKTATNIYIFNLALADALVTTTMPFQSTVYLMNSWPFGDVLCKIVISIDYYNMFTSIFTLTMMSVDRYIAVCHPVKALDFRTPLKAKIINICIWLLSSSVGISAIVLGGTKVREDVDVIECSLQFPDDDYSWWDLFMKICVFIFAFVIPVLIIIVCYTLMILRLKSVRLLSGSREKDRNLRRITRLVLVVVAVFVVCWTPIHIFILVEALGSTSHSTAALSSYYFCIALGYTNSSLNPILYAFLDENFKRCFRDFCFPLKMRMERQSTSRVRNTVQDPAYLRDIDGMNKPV
Chain of Serine/threonine-protein kinase 38-like (Homo sapiens) (Q9Y2H1 2-464 limits assumed): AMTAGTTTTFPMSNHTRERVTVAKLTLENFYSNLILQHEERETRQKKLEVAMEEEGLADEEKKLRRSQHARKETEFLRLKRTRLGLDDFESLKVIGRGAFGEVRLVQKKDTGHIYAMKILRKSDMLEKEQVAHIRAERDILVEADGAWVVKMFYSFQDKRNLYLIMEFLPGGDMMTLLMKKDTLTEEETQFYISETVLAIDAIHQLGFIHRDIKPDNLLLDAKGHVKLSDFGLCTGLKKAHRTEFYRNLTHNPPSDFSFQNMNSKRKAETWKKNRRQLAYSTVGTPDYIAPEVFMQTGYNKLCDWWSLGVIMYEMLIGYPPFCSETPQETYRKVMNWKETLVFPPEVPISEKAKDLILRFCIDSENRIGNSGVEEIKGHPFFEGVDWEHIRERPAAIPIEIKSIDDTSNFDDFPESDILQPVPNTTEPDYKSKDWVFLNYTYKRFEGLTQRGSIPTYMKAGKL
Chain of Ephrin type-A receptor 1 (Homo sapiens) (P21709 whole entry): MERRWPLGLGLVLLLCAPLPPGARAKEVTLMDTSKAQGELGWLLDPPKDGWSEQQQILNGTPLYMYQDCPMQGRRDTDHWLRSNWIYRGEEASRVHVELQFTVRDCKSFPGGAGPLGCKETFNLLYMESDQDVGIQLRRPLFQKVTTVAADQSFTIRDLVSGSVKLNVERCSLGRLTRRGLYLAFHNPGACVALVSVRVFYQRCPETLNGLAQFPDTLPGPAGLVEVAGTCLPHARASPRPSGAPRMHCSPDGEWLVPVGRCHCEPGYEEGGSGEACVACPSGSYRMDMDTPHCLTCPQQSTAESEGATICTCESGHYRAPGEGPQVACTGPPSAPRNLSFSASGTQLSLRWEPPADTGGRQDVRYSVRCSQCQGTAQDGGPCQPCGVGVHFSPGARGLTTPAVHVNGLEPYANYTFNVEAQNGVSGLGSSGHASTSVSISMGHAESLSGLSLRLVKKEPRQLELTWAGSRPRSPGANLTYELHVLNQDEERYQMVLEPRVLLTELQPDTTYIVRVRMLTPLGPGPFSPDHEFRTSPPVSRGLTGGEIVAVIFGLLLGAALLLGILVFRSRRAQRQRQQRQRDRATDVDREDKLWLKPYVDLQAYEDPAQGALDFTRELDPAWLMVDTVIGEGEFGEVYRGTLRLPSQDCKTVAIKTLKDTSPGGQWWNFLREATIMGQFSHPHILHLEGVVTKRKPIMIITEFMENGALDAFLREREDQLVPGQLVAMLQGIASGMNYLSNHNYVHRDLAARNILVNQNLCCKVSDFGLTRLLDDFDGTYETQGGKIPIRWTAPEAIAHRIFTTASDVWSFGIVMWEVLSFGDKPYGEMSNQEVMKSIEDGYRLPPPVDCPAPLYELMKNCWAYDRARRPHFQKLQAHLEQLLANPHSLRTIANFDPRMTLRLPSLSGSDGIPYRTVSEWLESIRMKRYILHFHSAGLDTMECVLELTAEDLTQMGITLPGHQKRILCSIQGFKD
Chain of Tyrosine-protein kinase receptor Tie-1 (Homo sapiens) (P35590 whole entry): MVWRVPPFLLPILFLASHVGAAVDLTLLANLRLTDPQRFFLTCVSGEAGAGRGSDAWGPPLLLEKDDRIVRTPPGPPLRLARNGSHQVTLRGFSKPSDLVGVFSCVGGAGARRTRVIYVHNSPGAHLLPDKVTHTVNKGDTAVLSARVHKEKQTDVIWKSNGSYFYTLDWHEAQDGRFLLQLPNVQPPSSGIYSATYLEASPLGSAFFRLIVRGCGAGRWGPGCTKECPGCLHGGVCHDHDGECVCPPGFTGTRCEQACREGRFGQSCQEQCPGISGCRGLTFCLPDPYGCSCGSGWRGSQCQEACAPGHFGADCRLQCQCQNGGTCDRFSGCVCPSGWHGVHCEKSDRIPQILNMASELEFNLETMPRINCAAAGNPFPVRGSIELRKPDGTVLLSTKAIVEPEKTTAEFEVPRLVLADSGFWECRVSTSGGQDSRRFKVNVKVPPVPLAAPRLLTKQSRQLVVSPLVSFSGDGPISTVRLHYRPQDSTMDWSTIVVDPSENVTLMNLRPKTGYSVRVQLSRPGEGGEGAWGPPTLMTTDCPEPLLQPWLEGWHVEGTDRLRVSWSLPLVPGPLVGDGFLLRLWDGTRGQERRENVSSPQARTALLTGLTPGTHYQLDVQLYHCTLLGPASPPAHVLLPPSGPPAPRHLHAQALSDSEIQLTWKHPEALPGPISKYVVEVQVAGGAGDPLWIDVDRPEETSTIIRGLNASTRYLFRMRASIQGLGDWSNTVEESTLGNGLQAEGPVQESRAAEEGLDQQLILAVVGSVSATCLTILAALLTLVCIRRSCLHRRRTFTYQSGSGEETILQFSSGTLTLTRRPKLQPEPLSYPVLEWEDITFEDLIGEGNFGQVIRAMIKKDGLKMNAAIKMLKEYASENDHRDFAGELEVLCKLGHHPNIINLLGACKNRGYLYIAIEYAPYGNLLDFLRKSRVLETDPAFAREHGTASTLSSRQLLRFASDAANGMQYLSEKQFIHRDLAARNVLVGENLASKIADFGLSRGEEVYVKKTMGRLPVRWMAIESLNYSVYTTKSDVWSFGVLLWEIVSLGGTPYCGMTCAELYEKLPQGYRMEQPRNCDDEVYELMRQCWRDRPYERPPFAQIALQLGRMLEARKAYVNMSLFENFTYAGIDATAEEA
Chain of Serine/threonine-protein kinase PLK1 (Homo sapiens) (P53350 whole entry): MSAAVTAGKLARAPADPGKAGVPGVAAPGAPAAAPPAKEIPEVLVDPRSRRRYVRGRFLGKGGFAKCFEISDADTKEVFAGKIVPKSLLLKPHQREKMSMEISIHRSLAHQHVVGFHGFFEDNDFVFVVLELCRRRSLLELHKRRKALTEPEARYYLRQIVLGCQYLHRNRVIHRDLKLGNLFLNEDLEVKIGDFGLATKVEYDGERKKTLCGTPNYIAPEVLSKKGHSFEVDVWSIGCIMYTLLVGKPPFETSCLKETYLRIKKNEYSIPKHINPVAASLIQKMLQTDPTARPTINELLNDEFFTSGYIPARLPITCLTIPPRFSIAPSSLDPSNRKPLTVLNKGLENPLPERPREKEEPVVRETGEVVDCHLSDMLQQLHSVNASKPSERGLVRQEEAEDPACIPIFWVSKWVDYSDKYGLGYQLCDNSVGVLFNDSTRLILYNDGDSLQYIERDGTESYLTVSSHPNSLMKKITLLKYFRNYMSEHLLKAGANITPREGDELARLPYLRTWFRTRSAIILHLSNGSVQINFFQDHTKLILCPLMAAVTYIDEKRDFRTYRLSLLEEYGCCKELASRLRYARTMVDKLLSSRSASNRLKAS
Chain of Aurora kinase A (Homo sapiens) (O14965 whole entry): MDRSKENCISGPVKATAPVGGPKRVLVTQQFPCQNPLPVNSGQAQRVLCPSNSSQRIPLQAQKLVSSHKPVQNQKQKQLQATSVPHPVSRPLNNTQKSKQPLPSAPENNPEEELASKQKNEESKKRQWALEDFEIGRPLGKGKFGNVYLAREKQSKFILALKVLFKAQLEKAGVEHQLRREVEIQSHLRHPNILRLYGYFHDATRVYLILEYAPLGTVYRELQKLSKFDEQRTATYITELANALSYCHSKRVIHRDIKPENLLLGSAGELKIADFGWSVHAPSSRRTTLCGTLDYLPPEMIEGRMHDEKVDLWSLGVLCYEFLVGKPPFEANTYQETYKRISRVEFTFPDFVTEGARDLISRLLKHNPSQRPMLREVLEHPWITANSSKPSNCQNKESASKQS
Chain of Phosphatidylinositol 4,5-bisphosphate 3-kinase catalytic subunit gamma isoform (Homo sapiens) (P48736 whole entry, looked up, canonical isoform): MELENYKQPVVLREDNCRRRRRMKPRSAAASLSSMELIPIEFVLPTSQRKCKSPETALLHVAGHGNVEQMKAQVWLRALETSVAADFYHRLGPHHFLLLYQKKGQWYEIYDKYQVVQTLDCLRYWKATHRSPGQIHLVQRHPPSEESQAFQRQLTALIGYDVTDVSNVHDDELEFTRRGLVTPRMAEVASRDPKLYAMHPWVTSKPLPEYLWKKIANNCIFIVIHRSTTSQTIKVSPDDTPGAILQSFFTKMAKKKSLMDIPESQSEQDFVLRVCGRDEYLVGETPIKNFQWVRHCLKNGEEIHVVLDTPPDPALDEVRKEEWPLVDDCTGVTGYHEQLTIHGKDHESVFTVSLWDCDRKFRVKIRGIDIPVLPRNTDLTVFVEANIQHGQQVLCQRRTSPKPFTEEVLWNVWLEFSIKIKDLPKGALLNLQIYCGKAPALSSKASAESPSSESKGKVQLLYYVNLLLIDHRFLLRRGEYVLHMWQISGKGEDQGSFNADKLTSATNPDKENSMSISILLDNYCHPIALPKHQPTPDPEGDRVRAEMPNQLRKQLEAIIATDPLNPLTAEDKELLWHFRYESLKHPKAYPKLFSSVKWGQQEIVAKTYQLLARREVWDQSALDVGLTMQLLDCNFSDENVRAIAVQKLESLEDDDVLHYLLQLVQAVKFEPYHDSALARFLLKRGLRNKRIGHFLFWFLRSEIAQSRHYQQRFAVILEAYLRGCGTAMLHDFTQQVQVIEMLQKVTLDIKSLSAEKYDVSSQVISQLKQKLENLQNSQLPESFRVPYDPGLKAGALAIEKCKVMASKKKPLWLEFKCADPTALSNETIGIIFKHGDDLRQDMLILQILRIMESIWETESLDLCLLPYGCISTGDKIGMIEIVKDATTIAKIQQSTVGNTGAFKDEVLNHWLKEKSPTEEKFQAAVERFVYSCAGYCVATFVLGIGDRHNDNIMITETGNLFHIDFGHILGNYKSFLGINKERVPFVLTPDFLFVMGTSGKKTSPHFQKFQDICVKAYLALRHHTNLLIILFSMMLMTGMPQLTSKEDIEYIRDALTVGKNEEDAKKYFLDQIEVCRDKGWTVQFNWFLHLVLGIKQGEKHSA

SMILES	Ki [1]	residual activity [2]	residual activity [3]	residual activity [4]	residual activity [5]	residual activity [6]	residual activity [7]	% Inhibition of Control Specific Binding (Mean n=2) [8]	residual activity [9]	residual activity [10]	residual activity [11]	residual activity [12]	residual activity [13]	residual activity [14]	residual activity [15]	residual activity [16]	residual activity [17]	residual activity [18]	residual activity [19]	residual activity [20]	further results
COc1ccc2c(c1)O[C@H](c1ccc(OC)c(OC)c1)C[C@@H]2NC(=O)C1(c2ccc3c(c2)OC(F)(F)O3)CC1 [A-1596584]	2740 nM	98%	100%	100%	88%	100%	88%	44.7%	93%	100%	100%	100%	100%	100%	78%	93%	100%	98%	95%	98%	residual activity [21]: 39%; residual activity [22]: 100%; residual activity [23]: 100%; residual activity [24]: 100%; residual activity [25]: 74%; residual activity [26]: 100%; residual activity [27]: 94%; residual activity [28]: 72%; residual activity [29]: 83%; residual activity [30]: 63%; inhibition [31]: 0.59%; residual activity [32]: 100%; residual activity [33]: 100%; residual activity [34]: 100%; residual activity [35]: 84%; residual activity [36]: 100%; residual activity [37]: 99%; residual activity [38]: 100%
COc1ccc2c(c1)O[C@@H](c1ccc(OC)c(OC)c1)C[C@H]2NC(=O)C1(c2ccc3c(c2)OC(F)(F)O3)CC1 [A-1596586]	315 nM	96%	96%	99%	100%	100%	93%	42.2%	75%	91%	75%	100%	94%	100%	89%	95%	93%	90%	95%	86%	residual activity [21]: 100%; residual activity [22]: 78%; residual activity [23]: 100%; residual activity [24]: 100%; residual activity [25]: 74%; residual activity [26]: 100%; residual activity [27]: 76%; residual activity [28]: 65%; residual activity [29]: 70%; residual activity [30]: 100%; inhibition [31]: -2.72%; residual activity [32]: 96%; residual activity [33]: 100%; residual activity [34]: 92%; residual activity [35]: 89%; residual activity [36]: 100%; residual activity [37]: 95%; residual activity [38]: 96%
